The test relates to adriamycinresistente S 180 Maus Sarcomazellen. Kind of test: MTT proliferation/cytotoxicity assay on adriamycin-resistant S 180 sarcoma cells, with or without adriamycin (sensitisation). The test is classed as cell-based. The note with it: S-180, 144 h, six days culture, MTT readout. An excerpt: Beispielsweise wurde die Sensibilisierung durch die Verbindungen A = 4-[N-(2-Hydroxy-2-methyl-propyl)-ethanolamino]-2,7-bis-(2,6-dimethyl-morpholino)-6-phenyl-pteridin, B = 4-Ethyl-ethanolamino-2,7-bis(2,6-dimethyl-morpholino)-6-phenyl-pteridin, C = 4-Ethanol-isopropanolamino-2,7-bis(2,6-dimethyl-morpholino)-6-phenyl-pteridin, D = 4-Diethanolamino-2,7-bis(2,6-dimethyl-morpholino)-6-phenyl-pteridin und E = 4-[N-(2-Hydroxy-2-methyl-propyl)-ethanolamino]-2,7-bis(cis-2,6-dimethyl-morpholino)-6-phenyl-pteridin am Beispiel von gegen Adriamycin resistenten Zellen wie folgt geprüft: Proliferierende, adriamycinresistente S 180 Maus Sarcomazellen werden in Anwesenheit unterschiedlicher Konzentrationen Testsubstanzen für sechs Tage kultiviert. Zytotoxisch oder zytostatisch wirkende Konzentrationen der Testsubstanzen werden durch vermindertes Zellwachstum oder durch das Absterben der Zellen angezeigt. Endpunkt des Assays ist die Zahl der lebenden Zellen pro Kultur, die indirekt ermittelt wird, indem die Eigenschaft vitaler Zellen, den Farbstoff MTT [= 3-(4,5-Dimethylthiazol-2-yl)-2,5-diphenyltetrazoliumbromid] zum farbigen Formazan zu reduzieren, ausgenützt wird. Als IC50 wird die Konzentration einer Testsubstanz bezeichnet, welche die Zahl der vitalen Zellen pro Kulturgefäß auf 50 % der unbehandelten Kontrolle reduziert. Die Testsubstanzen werden sowohl in Abwesenheit von Adriamycin als auch in Anwesenheit einer unter Kulturbedingungen nicht proliferationshemmend wirkenden Menge Adriamycin getestet. Pro Testsubstanz erhält man daher zwei IC50-Werte, einen in Anwesenheit (IC50 ADR), den anderen in Abwesenheit (IC50) von Adriamycin. Die Differenz der Zehnerlogarithmen der beiden IC50-Werte: Δ = 1gIC50-1gIC50 ADR ist ein Maß für die Erhöhung der Zytotoxizität der Testsubstanz durch Adriamycin.
Exponentiell wachsende, adriamycinresistente oder adriamycinsensitive S 180-Zellen werden in 96-Loch Flachboden-Mikrotiterplatten zu 2000 Zellen pro Loch in 100 »l Wachstumsmedium (RPMI-1640, das 10 % fötales Rinderserum enthält) ausplattiert. Die Kulturplatten werden im Brutschrank bei 37°C, 5 % CO₂ und 100 % relativer Luftfeuchtigkeit inkubiert. Nach 24 Stunden werden pro Loch 50 »l Wachstumsmedium, das unterschiedliche Konzentrationen an Testsubstanz enthält, und 50 »l Wachstumsmedium mit oder ohne Adriamycin hinzugefügt. Im Anschluß an eine weitere sechstägige Kultivierung werden 50 »l Tetrazoliumsalzlösung [5 mg 3-(4,5-Dimethylthiazol-2-yl)-2,5-diphenyltetrazoliumbromid pro ml Phosphat-gepufferter Salinelösung, vor Gebrauch 1:5 (v/v) mit RPMI-1640 verdünnt] in jedes Loch pipettiert. Nach vier Stunden Inkubation wird das Kulturmedium vorsichtig abgesaugt und intrazellulär gebildetes Formazan durch 150 »l Dimethylsulfoxid pro Loch solubilisiert. Die Platten werden kurz geschüttelt und die optische Dichte bei 570 nm mit einem Photometer wie einem Dynatech MR-600-Gerät gemessen. Die Bildung des farbigen Formazans durch Reduktion des Tetrazoliumsalzes ist proportional der Zahl der lebenden Zellen. Die Mittelwerte von Dreifach-Bestimmungen wurden bei der Berechnung der IC50-Werte verwendet (Verdünnungsstufe: 1:2).

[1] abbreviates: Tabelle 2, Adriamycin 100 ng/ml.

Experimental findings from EP0362645B1, “Use of pteridines in the prevention of the primary and secondary resistance during chemotherapy, and medicaments containing these compounds” (Dr. Karl Thomae GmbH, priority 1988, dated 1990) are described below.

The term IC50 denotes the concentration at which inhibition is half-maximal.

The structures appear in SMILES notation. Some results are limits rather than exact numbers.

In the case of `CC1CN(c2nc(N(CCO)CC(C)(C)O)c3nc(-c4ccccc4)c(N4CC(C)OC(C)C4)nc3n2)CC(C)O1` (centres unmarked) [A, 4-[N-(2-Hydroxy-2-methyl-propyl)-ethanolamino]-2,7-bis-(2,6-dimethyl-morpholino)-6-phenyl-pteridin], the IC50 reads like this: (Tabelle 1, Adriamycin 0 ng/ml) 20.7 µg/mL; (Tabelle 1, Adriamycin 25 ng/ml) 1.49 µg/mL; (Tabelle 2, Adriamycin 0 ng/ml) 20.7 µg/mL; under setting [1], less than 0.5 µg/mL.
`CCN(CCO)c1nc(N2CC(C)OC(C)C2)nc2nc(N3CC(C)OC(C)C3)c(-c3ccccc3)nc12` (centres unmarked) [B, 4-Ethyl-ethanolamino-2,7-bis(2,6-dimethyl-morpholino)-6-phenyl-pteridin]: the IC50 is, setting by setting: (Tabelle 1, Adriamycin 0 ng/ml) more than 31.6 µg/mL; (Tabelle 1, Adriamycin 25 ng/ml) 4.43 µg/mL; (Tabelle 2, Adriamycin 0 ng/ml) more than 31.6 µg/mL; under setting [1], 0.77 µg/mL.
For the compound `CC(O)CN(CCO)c1nc(N2CC(C)OC(C)C2)nc2nc(N3CC(C)OC(C)C3)c(-c3ccccc3)nc12` (centres unmarked) [C, 4-Ethanol-isopropanolamino-2,7-bis(2,6-dimethyl-morpholino)-6-phenyl-pteridin], the IC50 was 12.8 µg/mL (Tabelle 1, Adriamycin 0 ng/ml); 3.77 µg/mL (Tabelle 1, Adriamycin 25 ng/ml); 12.8 µg/mL (Tabelle 2, Adriamycin 0 ng/ml); 0.82 µg/mL under setting [1].
For `CC1CN(c2nc(N(CCO)CCO)c3nc(-c4ccccc4)c(N4CC(C)OC(C)C4)nc3n2)CC(C)O1` (centres unmarked) [D, 4-Diethanolamino-2,7-bis(2,6-dimethyl-morpholino)-6-phenyl-pteridin], the IC50 stood at 14.4 µg/mL (Tabelle 1, Adriamycin 0 ng/ml); 5.78 µg/mL (Tabelle 1, Adriamycin 25 ng/ml); 14.4 µg/mL (Tabelle 2, Adriamycin 0 ng/ml); 1.57 µg/mL under setting [1].
Regarding `C[C@@H]1CN(c2nc(N(CCO)CC(C)(C)O)c3nc(-c4ccccc4)c(N4C[C@@H](C)O[C@@H](C)C4)nc3n2)C[C@H](C)O1` [E, 4-[N-(2-Hydroxy-2-methyl-propyl)-ethanolamino]-2,7-bis(cis-2,6-dimethyl-morpholino)-6-phenyl-pteridin], the IC50 (Tabelle 1, Adriamycin 0 ng/ml) was 7.5 µg/mL; the IC50 (Tabelle 1, Adriamycin 25 ng/ml) worked out at 0.5 µg/mL; the IC50 (Tabelle 2, Adriamycin 0 ng/ml) is 7.5 µg/mL; the IC50 under setting [1] worked out at 0.1 µg/mL.
